From paper PMC8170749, “4-(1-Benzyl-1H-benzo[d]imidazol-2-yl)-4-oxo-2-butenoic Acid Derivatives: Design, Synthesis and Anti-HIV-1 Activity” (Iranian Journal of Pharmaceutical Research : IJPR, 2021)

Columns and labels:
[1] = design: method as in PMID 27659398, PMID 21728968, PMID 22214459, PMID 21767569; settings: cited from earlier work
HIV-1 integrase (IN) = system: HIV-1 integrase (IN); design: method as in PMID 27659398, PMID 21728968, PMID 22214459, PMID 21767569; settings: cited from earlier work
HIV-1 = system: HIV-1; design: method as in PMID 27659398, PMID 21728968, PMID 22214459, PMID 21767569; settings: cited from earlier work
[2] = system: single cycle replicable HIV NL4-3 virions; assay: single-cycle HIV-1 replication assay in HeLa cells (p24 ELISA); assay type: cell-based; settings: for EC50: Human immunodeficiency virus 1, NL43, HeLa, 72 h, read-out: Anti-HIV-1 activity (EC50)
in vitro = settings: human

| SMILES | cell toxicity [1] | inhibitory activity in enzymatic assays (HIV-1 integrase (IN)) | inhibitory activity in cellular assays (HIV-1) | SI (selectivity index, CC50/EC50 ratio) [2] | EC50 [2] [µM] | CC50 at 72 h (in vitro) [µM] | CC50 (in vitro) [µM] |
| --- | --- | --- | --- | --- | --- | --- | --- |
| COc1cccc2c1c(C(=O)/C=C(\O)C(=O)O)cn2Cc1ccc(F)cc1 [CHI-1043] | low cell toxicity | submicromolar | submicromolar |  |  |  |  |
| O=C(O)C(O)=CC(=O)c1nc2ccccc2n1Cc1ccccc1 [Compound 13a, 4-(1-benzyl-1H-benzo[d]imidazol-2-yl)-2-hydroxy-4-oxo-2-butenoic acid] |  |  |  | 4.5 | 110 | 500 |  |
| Cc1ccccc1Cn1c(C(=O)C=C(O)C(=O)O)nc2ccccc21 [Compound 13b, 4-(1-(2-methylbenzyl)-1H-benzo[d]imidazol-2-yl)-2-hydroxy-4-oxo-2-butenoic acid] |  |  |  | 9.8 | 60 | 590 |  |
| Cc1cccc(Cn2c(C(=O)C=C(O)C(=O)O)nc3ccccc32)c1 [Compound 13c, 4-(1-(3-methylbenzyl)-1H-benzo[d]imidazol-2-yl)-2-hydroxy-4-oxo-2-butenoic acid] |  |  |  | 5.7 | 75 | 430 |  |
| Cc1ccc(Cn2c(C(=O)C=C(O)C(=O)O)nc3ccccc32)cc1 [Compound 13d, 4-(1-(4-methylbenzyl)-1H-benzo[d]imidazol-2-yl)-2-hydroxy-4-oxo-2-butenoic acid] |  |  |  | 11.6 | 50 | 580 |  |
| O=C(O)C(O)=CC(=O)c1nc2ccccc2n1Cc1ccccc1Cl [Compound 13e, 4-(1-(2-chlorobenzyl)-1H-benzo[d]imidazol-2-yl)-2-hydroxy-4-oxo-2-butenoic acid] |  |  |  | 2.4 | 155 | 380 |  |
| O=C(O)C(O)=CC(=O)c1nc2ccccc2n1Cc1cccc(Cl)c1 [Compound 13f, 4-(1-(3-chlorobenzyl)-1H-benzo[d]imidazol-2-yl)-2-hydroxy-4-oxo-2-butenoic acid] |  |  |  | 7.4 | 55 | 410 |  |
| O=C(O)C(O)=CC(=O)c1nc2ccccc2n1Cc1ccccc1F [Compound 13g, 4-(1-(2-fluorobenzyl)-1H-benzo[d]imidazol-2-yl)-2-hydroxy-4-oxo-2-butenoic acid] |  |  |  | 13.7 | 40 | 550 |  |
| O=C(O)C(O)=CC(=O)c1nc2ccccc2n1Cc1cccc(F)c1 [Compound 13h, 4-(1-(3-fluorobenzyl)-1H-benzo[d]imidazol-2-yl)-2-hydroxy-4-oxo-2-butenoic acid] |  |  |  | 8.7 | 55 | 480 |  |
| COc1cccc(Cn2c(C(=O)C=C(O)C(=O)O)nc3ccccc32)c1 [Compound 13i, 4-(1-(3-methoxybenzyl)-1H-benzo[d]imidazol-2-yl)-2-hydroxy-4-oxo-2-butenoic acid] |  |  |  | 5.4 | 90 | 490 |  |
| O=C(O)/C(O)=C/C(=O)c1cccn1Cc1ccc(F)cc1 [L-731,988] | low cell toxicity |  |  |  |  |  |  |
| Cc1nnc(C(=O)NC(C)(C)c2nc(C(=O)NCc3ccc(F)cc3)c(O)c(=O)n2C)o1 [Raltegravir, reference compound] |  |  |  |  | 0.9 |  | > 500 |
